The record followed here is patent publication US20170008921A1, “C-3 NOVEL TRITERPENONE WITH C-28 REVERSE AMIDE DERIVATIVES AS HIV INHIBITORS” (HETERO RESEARCH FOUNDATION, priority 2015, published 2017).

This series is described as follows: Cyto-toxicity (MTT assay). In kind it is cell-based. Here is the method:
On day 1 calculate the number of cells required for the assay and seed 3×10^4 cells in 200 μl per well. Weigh the compound and dissolve it in DMSO to get 10 mM stock which is further diluted to 3 mM and 1 mM. […] Add DMSO to controls in a way to obtain final concentration of solvent that is not greater than 1%. Incubate for 4 days in 5% CO2 incubator at 37° C. On day 4, 100 μl of medium was removed from each well without disturbing the cells. Add 10 μl of MTT reagent and incubate for 4 hours at 5% CO2 incubator at 37° C. for formation of crystals. Add 200 μl of 0.1N acidic isopropanol to dissolve the crystals and read the plate at 590 nm. The values are mentioned in below Table-3 and Table-3A.

Where [1] appears, read: 0.01 μM, MTT, 4 days (Table 3), read-out: Cytotoxicity % viability.
The mark [2] stands for this setting: 0.1 μM, MTT, 4 days (Table 3), read-out: Cytotoxicity % viability.
The mark [3] stands for this setting: 1 μM, MTT, 4 days (Table 3), read-out: Cytotoxicity % viability.

Where a name gives a salt, the structure may show the parent alone. Read-outs that look alike come from different tables or passages of the source.

In general, viability refers to a per cent measure of how many cells are alive, often set against a control. In turn, `CCN1CCN(CC(=O)NC(C)(C)C(=O)N[C@@]23CC[C@]4(C)[C@H](CC[C@@H]5[C@@]6(C)CC[C@H](OC(=O)[C@H]7C[C@@H](C(=O)O)C7(C)C)C(C)(C)[C@@H]6CC[C@]54C)C2=C(C(C)C)C(=O)C3)CC1` [Example 9, (1R,3S)-3-((((3aR,5aR,5bR,7aR,9S,11aR,11bR,13aS)-3a-(2-(2-(4-ethylpiperazin-1-yl)acetamido)-2-methylpropanamido)-1-isopropyl-5a,5b,8,8,11a-pentamethyl-2-oxo-3,3a,4,5,5a,5b,6,7,7a,8,9,10,11,11a,11b,12,13,13a-octadecahydro-2H-cyclopenta[a]chrysen-9-yl)oxy)carbonyl)-2,2-dimethylcyclobutane-1-carboxylic acid] returned a viability at 4 days, 0.01 µM of 100%; a viability at 4 days, 0.1 µM of 53%; a viability at 4 days, 1 µM of 14%.

Compound `CC(C)C1=C2[C@H]3CC[C@@H]4[C@@]5(C)CC[C@H](OC(=O)[C@H]6C[C@@H](C(=O)O)C6(C)C)C(C)(C)[C@@H]5CC[C@@]4(C)[C@]3(C)CC[C@@]2(NC(=O)C(C)(C)NC(=O)c2nccn2C)CC1=O` [Example 16, (1R,3S)-3-((((3aR,5aR,5bR,7aR,9S,11aR,11bR,13aS)-1-isopropyl-5a,5b,8,8,11a-pentamethyl-3a-(2-methyl-2-(1-methyl-1H-imidazole-2-carboxamido)propanamido)-2-oxo-3,3a,4,5,5a,5b,6,7,7a,8,9,10,11,11a,11b,12,13,13a-octadecahydro-2H-cyclopenta[a]chrysen-9-yl)oxy)carbonyl)-2,2-dimethylcyclobutane-1-carboxylic acid] displayed a viability at 4 days, 0.01 µM of 37%; a viability at 4 days, 0.1 µM of 11%; a viability at 4 days, 1 µM of 2%.

`CC(C)C1=C2[C@H]3CC[C@@H]4[C@@]5(C)CC[C@H](OC(=O)[C@H]6C[C@@H](C(=O)O)C6(C)C)C(C)(C)[C@@H]5CC[C@@]4(C)[C@]3(C)CC[C@@]2(NC(=O)C(C)(C)NC(=O)[C@@H]2CCCN2C(=O)OC(C)(C)C)CC1=O` [Example 8, (1R,3S)-3-((((3aR,5aR,5bR,7aR,9S,11aR,11bR,13aS)-3a-(2-((S)-1-(tert-butoxycarbonyl)pyrrolidine-2-carboxamido)-2-methylpropanamido)-1-isopropyl-5a, 5b,8,8,11a-pentamethyl-2-oxo-3,3a,4,5,5a,5b,6,7,7a,8,9,10,11,11a,11b,12,13,13a-octadeca hydro-2H-cyclopenta[a]chrysen-9-yl)oxy)carbonyl)-2,2-dimethylcyclobutane-1-carboxylic acid] displayed a viability at 4 days, 0.01 µM of 28%; a viability at 4 days, 0.1 µM of 5%; a viability at 4 days, 1 µM of 3%.

Turning to `CC(C)C1=C2[C@H]3CC[C@@H]4[C@@]5(C)CC[C@H](OC(=O)[C@H]6C[C@@H](C(=O)O)C6(C)C)C(C)(C)[C@@H]5CC[C@@]4(C)[C@]3(C)CC[C@@]2(NC(=O)C2(NC(=O)c3ccc(F)cc3)CC2)CC1=O` [Example 39, (1R,3S)-3-((((3aR,5aR,5bR,7aR,9S,11aR,11bR,13aS)-3a-(1-(4-fluorobenzamido)cyclopropane-1-carboxamido)-1-isopropyl-5a,5b,8,8,11a-pentamethyl-2-oxo-3,3a,4,5,5a,5b,6,7,7a,8,9,10,11,11a,11b,12,13,13a-octadecahydro-2H-cyclopenta[a]chrysen-9-yl)oxy)carbonyl)-2,2-dimethylcyclobutane-1-carboxylic acid], the viability at 4 days, 0.01 µM worked out at 29%; the viability at 4 days, 0.1 µM is 2%; the viability at 4 days, 1 µM turned out to be 0%.

In the case of `CC(C)C1=C2[C@H]3CC[C@@H]4[C@@]5(C)CC[C@H](OC(=O)[C@H]6C[C@@H](C(=O)O)C6(C)C)C(C)(C)[C@@H]5CC[C@@]4(C)[C@]3(C)CC[C@@]2(NC(=O)C(C)(C)NC(=O)[C@@H](N)C(C)C)CC1=O` [Example 36, (1R,3S)-3-((((3aR,5aR,5bR,7aR,9S,11aR,11bR,13aS)-3a-(2-((S)-2-amino-3-methylbutanamido)-2-methylpropanamido)-1-isopropyl-5a,5b,8,8,11a-pentamethyl-2-oxo-3,3a,4,5,5a,5b,6,7,7a,8,9,10,11,11a,11b,12,13,13a-octadecahydro-2H-cyclopenta[a]chrysen-9-yl)oxy)carbonyl)-2,2-dimethylcyclobutane-1-carboxylic acid hydrochloride], the viability at 4 days, 0.01 µM under setting [1] came to 56%. Moreover, the viability at 4 days, 0.1 µM under setting [2] amounted to 15%. Also, under setting [3], the viability at 4 days, 1 µM amounted to 8%.

Regarding `CC(C)C1=C2[C@H]3CC[C@@H]4[C@@]5(C)CC[C@H](OC(=O)[C@H]6C[C@@H](C(=O)O)C6(C)C)C(C)(C)[C@@H]5CC[C@@]4(C)[C@]3(C)CC[C@@]2(NC(=O)C(C)(C)NC(=O)C2CCNCC2)CC1=O` [Example 35, (1R,3S)-3-((((3aR,5aR,5bR,7aR,9S,11aR,11bR,13aS)-1-isopropyl-5a,5b,8,8,11a-pentamethyl-3a-(2-methyl-2-(piperidine-4-carboxamido)propanamido)-2-oxo-3,3a,4,5,5a,5b,6,7,7a,8,9,10,11,11a,11b,12,13,13a-octadecahydro-2H-cyclopenta[a]chrysen-9-yl)oxy)carbonyl)-2,2-dimethylcyclobutane-1-carboxylic acid hydrochloride], the viability at 4 days, 0.01 µM under setting [1] worked out at 84%. Also, under setting [2], the viability at 4 days, 0.1 µM was found to be 92%. In addition, under setting [3], the viability at 4 days, 1 µM turned out to be 77%.

For the compound `CC(C)C1=C2[C@H]3CC[C@@H]4[C@@]5(C)CC[C@H](OC(=O)[C@H]6C[C@@H](C(=O)O)C6(C)C)C(C)(C)[C@@H]5CC[C@@]4(C)[C@]3(C)CC[C@@]2(NC(=O)C(C)(C)NC(=O)CN2CCS(=O)(=O)CC2)CC1=O` [Example 34, (1R,3S)-3-((((3aR,5aR,5bR,7aR,9S,11aR,11bR,13aS)-3a-(2-(2-(1,1-dioxidothiomorpholino)acetamido)-2-methylpropanamido)-1-isopropyl-5a,5b,8,8,11a-pentamethyl-2-oxo-3,3a,4,5,5a,5b,6,7,7a,8,9,10,11,11a,11b,12,13,13a-octadecahydro-2H-cyclopenta[a]chrysen-9-yl)oxy)carbonyl)-2,2-dimethylcyclobutane-1-carboxylic acid], the viability at 4 days, 0.01 µM amounted to 26%; the viability at 4 days, 0.1 µM is 10%; the viability at 4 days, 1 µM was determined as 1%.

Turning to `CC(C)C1=C2[C@H]3CC[C@@H]4[C@@]5(C)CC[C@H](OC(=O)[C@H]6C[C@@H](C(=O)O)C6(C)C)C(C)(C)[C@@H]5CC[C@@]4(C)[C@]3(C)CC[C@@]2(NC(=O)C(C)(C)NC(=O)C2(c3ccccc3)CCCC2)CC1=O` [Example 27, (1R,3S)-3-((((3aR,5aR,5bR,7aR,9S,11aR,11bR,13aS)-1-isopropyl-5a,5b,8,8,11a-pentamethyl-3a-(2-methyl-2-(1-phenylcyclopentane-1-carboxamido)propanamido)-2-oxo-3,3a,4,5,5a,5b,6,7,7a,8,9,10,11,11a,11b,12,13,13a-octadecahydro-2H-cyclopenta[a]chrysen-9-yl)oxy)carbonyl)-2,2-dimethylcyclobutane-1-carboxylic acid], the viability at 4 days, 0.01 µM is 52%; the viability at 4 days, 0.1 µM amounted to 2%; the viability at 4 days, 1 µM came out at 0%.
